In the supplement of paper PMC11208160:

Assay: recombinant UMI read abundance after kanamycin selection (control-corrected) (log10(CPM+1)); higher = more efficient recombination; extreme values may be limits of the assay; sequences stand for … in AGTGCAGAGAAAATCGGCCAGTTTTCTCTGCCTGCAGTCCGCATGCCGTGGGACCCCTTGGGTTCTAACCTGTTGCCTAGATTTATGCAGCGGACTGCCTTTCTCCCAAAGTGATAAACCGG…AGGTTGGTTTCACT; site = the 11-nt donor
In short: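 Sequenced counts of recombinant UMIs were turned into CPM, averaged across replicates and scaled with control-derived factors. The reported figure is log10(CPM+1). Those UMIs, each 12 nt long, tagged donor and donor-binding-loop pairs on a plasmid with a promoterless kanamycin gene, screened as a pool in Escherichia coli with IPTG (0.07 mM) plus kanamycin or without selection.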
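Also: IS621 bridge recombinase in Escherichia coli cells against a fixed T5 target plasmid.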

Sequence	recombinant UMI read abundance (log10)
CAAGCGGCATGGACCGGTTTTCCCGGTAATCCGTATTTGTG (site CAAGCGTCTCA)	1.66
CAAGTAACATGGACCGGTTTTCCCGGTAATCCGTATTTGGG (site CAAGTAACTCC)	1.53
CAAGTAACATGGACCGGTTTTCCCGGTAATCCGTATTTGGG (site CAAGTCACTCC)	0.0125
CAAGTAACATGGACCGGTTTTCCCGGTAATCCGTATTTGGG (site CAAGTGACTCC)	0.0247
CAAGTAACATGGACCGGTTTTCCCGGTAATCCGTATTTGGG (site CAAGTTACTCC)	0.237
CAAGTCACATGGACCGGTTTTCCCGGTAATCCGTATTTGCG (site CAAGTCACTCA)	1.27
CAAGTCACATGGACCGGTTTTCCCGGTAATCCGTATTTGCG (site CAAGTCACTCC)	0.632
CAAGTCACATGGACCGGTTTTCCCGGTAATCCGTATTTGCG (site CAAGTCACTCG)	2.34
CAAGTCACATGGACCGGTTTTCCCGGTAATCCGTATTTGCG (site CAAGTCACTCT)	1.63
CAAGTCACATGGACCGGTTTTCCCGGTAATCCGTATTTGGG (site AAAGTCACTCC)	0.0232
CAAGTCACATGGACCGGTTTTCCCGGTAATCCGTATTTGGG (site CAAATCACTCC)	0.0224
CAAGTCACATGGACCGGTTTTCCCGGTAATCCGTATTTGGG (site CAACTCACTCC)	0.177
CAAGTCACATGGACCGGTTTTCCCGGTAATCCGTATTTGGG (site CAAGACACTCC)	0.0192
CAAGTCACATGGACCGGTTTTCCCGGTAATCCGTATTTGGG (site CAAGCCACTCC)	0.239
CAAGTCACATGGACCGGTTTTCCCGGTAATCCGTATTTGGG (site CAAGGCACTCC)	0.0072
CAAGTCACATGGACCGGTTTTCCCGGTAATCCGTATTTGGG (site CAAGTAACTCC)	0.0617
CAAGTCACATGGACCGGTTTTCCCGGTAATCCGTATTTGGG (site CAAGTCACTAC)	0.0634
CAAGTCACATGGACCGGTTTTCCCGGTAATCCGTATTTGGG (site CAAGTCACTCA)	0.0308
CAAGTCACATGGACCGGTTTTCCCGGTAATCCGTATTTGGG (site CAAGTCACTCC)	0.013
CAAGTCACATGGACCGGTTTTCCCGGTAATCCGTATTTGGG (site CAAGTCACTCG)	0
CAAGTCACATGGACCGGTTTTCCCGGTAATCCGTATTTGGG (site CAAGTCACTCT)	0.593
CAAGTCACATGGACCGGTTTTCCCGGTAATCCGTATTTGGG (site CAAGTCACTGC)	0
CAAGTCACATGGACCGGTTTTCCCGGTAATCCGTATTTGGG (site CAAGTCACTTC)	0.00273
CAAGTCACATGGACCGGTTTTCCCGGTAATCCGTATTTGGG (site CAAGTCCCTCC)	0.0287
CAAGTCACATGGACCGGTTTTCCCGGTAATCCGTATTTGGG (site CAAGTCGCTCC)	0.0204

Sequence	recombinant UMI read abundance (log10)
CAAGTCACATGGACCGGTTTTCCCGGTAATCCGTATTTGGG (site CAAGTCTCTCC)	0.493
CAAGTCACATGGACCGGTTTTCCCGGTAATCCGTATTTGGG (site CAAGTGACTCC)	0.0398
CAAGTCACATGGACCGGTTTTCCCGGTAATCCGTATTTGGG (site CAAGTTACTCC)	0.161
CAAGTCACATGGACCGGTTTTCCCGGTAATCCGTATTTGGG (site CAATTCACTCC)	0.0165
CAAGTCACATGGACCGGTTTTCCCGGTAATCCGTATTTGGG (site CACGTCACTCC)	0
CAAGTCACATGGACCGGTTTTCCCGGTAATCCGTATTTGGG (site CAGGTCACTCC)	0.0212
CAAGTCACATGGACCGGTTTTCCCGGTAATCCGTATTTGGG (site CATGTCACTCC)	0.0038
CAAGTCACATGGACCGGTTTTCCCGGTAATCCGTATTTGGG (site CCAGTCACTCC)	0.0443
CAAGTCACATGGACCGGTTTTCCCGGTAATCCGTATTTGGG (site CGAGTCACTCC)	0.00994
CAAGTCACATGGACCGGTTTTCCCGGTAATCCGTATTTGGG (site CTAGTCACTCC)	0.0139
CAAGTCACATGGACCGGTTTTCCCGGTAATCCGTATTTGGG (site GAAGTCACTCC)	0.0173
CAAGTCACATGGACCGGTTTTCCCGGTAATCCGTATTTGGG (site TAAGTCACTCC)	0.0086
CAAGTCGCATGGACCGGTTTTCCCGGTAATCCGTATTTGGT (site CAAGTCGCTAC)	1.77
CAAGTGCCATGGACCGGTTTTCCCGGTAATCCGTATTTGTA (site CAAGTGCCTTA)	1.56
CAAGTTACATGGACCGGTTTTCCCGGTAATCCGTATTTGGG (site CAAGTAACTCC)	0.277
CAAGTTACATGGACCGGTTTTCCCGGTAATCCGTATTTGGG (site CAAGTCACTCC)	0.252
CAAGTTACATGGACCGGTTTTCCCGGTAATCCGTATTTGGG (site CAAGTGACTCC)	0.0286
CAAGTTACATGGACCGGTTTTCCCGGTAATCCGTATTTGGG (site CAAGTTACTCC)	0.861
CAATCATCATGGACCGGTTTTCCCGGTAATCCGTATTTGAT (site CAATCATCTAT)	0.435
CAATCATCATGGACCGGTTTTCCCGGTAATCCGTATTTGAT (site CGATCATCTAG)	0
CAATCATCATGGACCGGTTTTCCCGGTAATCCGTATTTGCC (site CAATCATCTGG)	0.733
CAATCATCATGGACCGGTTTTCCCGGTAATCCGTATTTGCC (site CGATCATCTAG)	0
CAATCCTCATGGACCGGTTTTCCCGGTAATCCGTATTTGCC (site CAATCCTCTGG)	1.54
CAATCCTCATGGACCGGTTTTCCCGGTAATCCGTATTTGCC (site CACTCCTCTGG)	1.14
CAATCCTCATGGACCGGTTTTCCCGGTAATCCGTATTTGCC (site CAGTCCTCTGG)	0

Sequence	recombinant UMI read abundance (log10)
CAATCCTCATGGACCGGTTTTCCCGGTAATCCGTATTTGCC (site CATTCCTCTGG)	0.913
CAATCGGCATGGACCGGTTTTCCCGGTAATCCGTATTTGAC (site CAATCGGCTGT)	1.77
CAATCTCCATGGACCGGTTTTCCCGGTAATCCGTATTTGCC (site CAATCTCCTGG)	0
CAATGATCATGGACCGGTTTTCCCGGTAATCCGTATTTGAA (site CAATGATCTTT)	3.01
CAATGATCATGGACCGGTTTTCCCGGTAATCCGTATTTGAA (site CAATGCTCTTT)	0.0913
CAATGATCATGGACCGGTTTTCCCGGTAATCCGTATTTGAA (site CAATGGTCTTT)	0.41
CAATGATCATGGACCGGTTTTCCCGGTAATCCGTATTTGAA (site CAATGTTCTTT)	0.682
CAATGATCATGGACCGGTTTTCCCGGTAATCCGTATTTGCT (site CAATGATCTAG)	2.19
CAATGATCATGGACCGGTTTTCCCGGTAATCCGTATTTGCT (site CGATCATCTAG)	0
CAATGCACATGGACCGGTTTTCCCGGTAATCCGTATTTGAA (site CAATGCACTTT)	1.97
CAATGCACATGGACCGGTTTTCCCGGTAATCCGTATTTGAA (site CAATGCCCTTT)	0
CAATGCACATGGACCGGTTTTCCCGGTAATCCGTATTTGAA (site CAATGCGCTTT)	0.409
CAATGCACATGGACCGGTTTTCCCGGTAATCCGTATTTGAA (site CAATGCTCTTT)	0.438
CAATGCTCATGGACCGGTTTTCCCGGTAATCCGTATTTGCA (site CAATGCTCTTA)	1.1
CAATGCTCATGGACCGGTTTTCCCGGTAATCCGTATTTGCA (site CAATGCTCTTC)	0
CAATGCTCATGGACCGGTTTTCCCGGTAATCCGTATTTGCA (site CAATGCTCTTG)	2.35
CAATGCTCATGGACCGGTTTTCCCGGTAATCCGTATTTGCA (site CAATGCTCTTT)	0.353
CAATGCTCATGGACCGGTTTTCCCGGTAATCCGTATTTGGA (site CAATGCTCTTA)	2.13
CAATGCTCATGGACCGGTTTTCCCGGTAATCCGTATTTGGA (site CAATGCTCTTC)	2.46
CAATGCTCATGGACCGGTTTTCCCGGTAATCCGTATTTGGA (site CAATGCTCTTG)	1.83
CAATGCTCATGGACCGGTTTTCCCGGTAATCCGTATTTGGA (site CAATGCTCTTT)	2.45
CAATTCACATGGACCGGTTTTCCCGGTAATCCGTATTTGCT (site CAATTCACTAG)	1.32
CAATTCACATGGACCGGTTTTCCCGGTAATCCGTATTTGCT (site CAATTCCCTAG)	0
CAATTCACATGGACCGGTTTTCCCGGTAATCCGTATTTGCT (site CAATTCGCTAG)	0.587
CAATTCACATGGACCGGTTTTCCCGGTAATCCGTATTTGCT (site CAATTCTCTAG)	0
